What was measured:
[1] = test system: ventral marginal zone (VMZ) explants; experiment: VMZ explant assay: mRNA injection, cardiac-specific gene expression and beating; assay type: cell-based, Xenopus laevis
Description: In a modification of this assay (FIG. 6A), we targeted mRNAs encoding Wnt and BMP antagonists to VMZ tissue by microinjection into the equatorial region of both ventral blastomeres of four-cell stage embryos. VMZ explants were isolated at stage 10, cultured, and assayed at stage 30 by RT-PCR for cardiac-specific gene expression.
Embryos were fertilized in vitro, dejellied in 2% cysteine-HCl (pH 7.8), and maintained in 0.1×MMR. Explant dissections were performed in 0.75×MMR using an eyelash knife. Embryos were staged according to Nieuwkoop and Faber (1994).
Marginal zone explants were dissected at stage 10. Those explants to be examined by RT-PCR for expression of heart field marker- and heart muscle-specific genes were cultured until sibling embryos were stage 30. In situ hybridization was performed on explants cultured to the equivalent of stage 23 or stage 30. Explants to be scored for formation of beating hearts were maintained until the equivalent of stage 41.
mRNA was transcribed from pSP35-chd, pSP64-ngn, pCS2-DKK1, pCS2-Crescent, pCS2-GSK3, pCS2-WIF, pCS2-dnXwnt8, pCS2-szl, and pXT7-FrzA using the SP6 and T7 mMessage mMachine kits (Ambion). All cDNAs used encode Xenopus proteins except those for Wnt1 and crescent, which encode chick isoforms. The Xenopus form of crescent was identified while this manuscript was in preparation (Pfeffer et al. 1997; Pera and De Robertis 2000; Shibata et al. 2000) and functions identically to the chick isoform in our assays. Xenopus and chick Crescent share 88% amino acid positional identity within the cysteine-rich domain. Injections were performed in 3% Ficoll in 1×MMR. Embryos were injected equatorially into the two ventral or two dorsal blastomeres at the four-cell stage to target expression to the ventral or dorsal marginal zone. The amount of mRNA injected is given in the text. For plasmid cDNA injections, 75 pg of pCS2-Xwnt3A, pCS2-Xwnt5A, and pCSKA-Xwnt8 and 100 pg of pCS2-cWnt11 supercoiled plasmid constructs were injected.
RT-PCR was performed as described in Schneider and Mercola (1999). Twenty-five cycles were performed at an annealing temperature of 55° C., unless otherwise noted. Expression of EF1α was used as a positive control for the reverse transcriptase reaction. The following additional primers were used: XNkx2.5+, […] (SEQ ID NO: 7); XNkx2.5−, […] (SEQ ID NO: 8); M. actin+, […] (SEQ ID NO: 9); M. actin−, […] (SEQ ID NO: 10) (22 cycles); TnIc+, […] (SEQ ID NO: 11); TnIc−, […] (SEQ ID NO: 12); MHCα+, […] GTTCCG (SEQ ID NO: 13); MHCα−, […] (SEQ ID NO: 14); Tbx5+, […] (SEQ ID NO: 15); Tbx5−, […] (SEQ ID NO: 16) (27 cycles); XNkx2.10+, […] (SEQ ID NO: 17); and XNkx2.10−, […] (SEQ ID NO: 18) (59° C., 28 cycles).
A secreted version of the C-terminal fragment was made by fusing the secretory region of human Dkk1 to the C-terminal region cysteine rich region, as described above. This protein is referred to as “C1.” Briefly, the HindIII-Asp718 C-terminal fragment of human Dkk1 (SEQ ID NO: 1) was ligated to the sequence encoding the secretory signal of Dkk1 and cloned into a vector permitting in vitro transcription. As a control, full length Dkk1 was used. RNA was prepared in vitro from the vector as described above. The RNA encoded a polypeptide comprising amino acids 158-266 of SEQ ID NO: 2. The RNA was then injected into noncardiogenic frog embryonic mesoderm, as described above and in Schneider and Mercola (2001) Genes & Dev. 15:304.

[2] = test system: posterior primitive streak (PPS) explants; experiment: Cardiac induction in posterior primitive streak (PPS) explants; assay type: cell-based, chick; details: PPS cocultured with transfected COS cells; RT-PCR
Source text: As crescent is expressed in anterior endoderm at approximately the stage expected for a heart-inducing factor, we investigated whether this Wnt inhibitor could induce the formation of heart muscle in explanted gastrula-stage posterior tissues. We made a replication-competent RCAS-crescent retrovirus and examined whether viral crescent expression can substitute for anterior endoderm in the cardiac induction assay. Explants of either PLP-mesoderm or PPS were infected with RCAS viruses encoding either crescent (RCAS-crescent) or alkaline phosphatase (RCAS-AP).
Eggs were incubated to the given stage (Hamburger and Hamilton 1951), and tissues were dissected with tungsten needles in Tyrodes solution using 1% agar dishes as a base. Serum-free medium containing insulin, transferrin, and selenium was adapted from Stern and Hauschka (1995) and supplemented with 2% chick embryo extract (Life Technologies). Virally infected explants were incubated on ice with viral supernatant diluted 1:1 with culture medium for 1-2 h, then cultured overnight in a sandwich of 35% collagen pads and overlaid with the above concentration of viral supernatant and medium containing 8 μg/mL polybrene. The following day, 0.25 mL of culture medium was added to each well. Anterior endoderm and COS cell cocultures were carried out on 2-μ pore size Nucleopore filters floating on culture medium. […]

dkk-1
Explants with rhythmic beating ([1]; 900 pg dkk-1, 1.5 ng crescent or 1.5 ng frzb mRNA, scored at stage 41): 73.2%
Explants with induced cement glands ([1]; VMZ explants cultured to stage 41): 90.7%
mRNA dose inducing cardiac-specific gene expression ([1]; VMZ explants, RT-PCR at stage 30): ≥ 450 pg
Heart-specific gene expression (TnIc, MHCα) ([1]; mRNA injected ventrally at four-cell stage, VMZ explants, RT-PCR stage 30): strong expression of TnIc and MHCα
Cardiac gene expression (Nkx-2.5, CMHC1) [2]: failed to activate cardiac gene expression
